Experimental data taken from patent publication US6720314B1, “Use of a vital dye for facilitating surgical procedures for cataract extraction” (priority 1998, dated 2004).

Legend:
[1] = toxicity profile of the dyes (general statement)
anterior lens capsule = assay: staining capacity of the dyes (general statement); conditions: very low amounts of dye

| SMILES | toxicity profile [1] | staining (anterior lens capsule) |
| --- | --- | --- |
| Cc1cc(-c2ccc(/N=N/c3c(S(=O)(=O)O)cc4cc(S(=O)(=O)O)cc(N)c4c3O)c(C)c2)ccc1/N=N/c1c(S(=O)(=O)O)cc2cc(S(=O)(=O)O)cc(N)c2c1O [trypan blue] | extremely advantageous toxicity profile | clearly visible staining at very low amounts |
| Nc1c(S(=O)(=O)[O-])cc2cc(S(=O)(=O)[O-])ccc2c1N=Nc1ccc(-c2ccc(N=Nc3c(N)c(S(=O)(=O)[O-])cc4cc(S(=O)(=O)[O-])ccc34)c(S(=O)(=O)[O-])c2)cc1.[Na+].[Na+].[Na+].[Na+].[Na+] [trypan red] |  | clearly visible staining at very low amounts |
| CCN(CC)c1ccc2nc3cc(C)c(N)cc3[o+]c2c1.[Cl-] [brilliant crysyl blue] | extremely advantageous toxicity profile | clearly visible staining at very low amounts |
